Read-outs that look alike come from different tables or passages of the source.
Tests used:
[1] = target: T1, FLT3 (Homo sapiens, UniProt P36888); assay: FLT3 enzymatic assay; format: biochemical; conditions: 1 mM ATP
T1 sequence (P36888 27-993): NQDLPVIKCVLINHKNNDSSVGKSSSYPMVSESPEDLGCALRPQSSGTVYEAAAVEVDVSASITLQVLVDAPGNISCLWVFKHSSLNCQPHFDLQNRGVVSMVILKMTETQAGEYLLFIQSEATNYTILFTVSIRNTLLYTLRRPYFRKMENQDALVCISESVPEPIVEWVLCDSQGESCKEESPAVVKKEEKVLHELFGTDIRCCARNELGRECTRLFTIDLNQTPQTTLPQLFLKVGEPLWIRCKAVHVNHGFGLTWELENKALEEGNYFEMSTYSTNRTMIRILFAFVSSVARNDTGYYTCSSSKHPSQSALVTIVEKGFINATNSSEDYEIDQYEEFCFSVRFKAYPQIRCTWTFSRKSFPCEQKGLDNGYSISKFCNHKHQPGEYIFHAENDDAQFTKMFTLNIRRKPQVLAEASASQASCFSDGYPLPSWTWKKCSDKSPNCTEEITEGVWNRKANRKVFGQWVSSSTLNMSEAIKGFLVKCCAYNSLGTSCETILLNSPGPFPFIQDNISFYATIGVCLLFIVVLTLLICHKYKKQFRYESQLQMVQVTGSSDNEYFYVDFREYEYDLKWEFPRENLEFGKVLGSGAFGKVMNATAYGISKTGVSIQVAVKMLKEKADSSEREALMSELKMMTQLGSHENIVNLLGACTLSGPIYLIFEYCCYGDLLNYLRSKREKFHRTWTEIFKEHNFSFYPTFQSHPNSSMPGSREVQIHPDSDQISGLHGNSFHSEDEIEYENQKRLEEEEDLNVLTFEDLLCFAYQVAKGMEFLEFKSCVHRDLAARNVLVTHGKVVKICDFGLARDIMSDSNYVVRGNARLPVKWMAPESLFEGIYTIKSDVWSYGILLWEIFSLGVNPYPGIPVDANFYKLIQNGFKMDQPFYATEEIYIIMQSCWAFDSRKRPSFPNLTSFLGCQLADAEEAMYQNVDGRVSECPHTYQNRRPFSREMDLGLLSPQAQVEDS
How it was run: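 Kinase reaction at room temperature in HEPES 50 mM pH 7.0 with 10 mM MgCl2, 1 mM DTT: 0.011 nM FLT3, 1 mM ATP, 500 nM biotinylated TK substrate, 0.5% DMSO. After 60 min, HTRF read as 665/620 nm ratio; IC50 from fit of percent control activity versus log concentration.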

[2] = target: T2, catalytic domain (JH1, amino acids 826-1132) of human JAK2 (Homo sapiens, UniProt O60674); assay: JAK2 LanthaScreen JH1 binding assay; conditions: read-out: JH1 Bind IC50
T2 construct: catalytic domain (JH1, amino acids 826-1132) of human JAK2; FLAG (N); biotin (biotinylated); purchased Carna Biosciences 08-445-20N; host or cells: baculovirus expression system
Procedure: Example A. JAK2 LanthaScreen […] Binding Assay
JAK2 JH1 binding assay utilizes catalytic domain (JH1, amino acids 826-1132) of human JAK2 expressed as N-terminal FLAG-tagged, biotinylated protein in a baculovirus expression system (Carna Biosciences, Product #08-445-20N). The assay was conducted in black 384-well polystyrene plates in a final reaction volume of 20 μL. JAK2 JH1 (1.5 nM) was incubated with compounds (100 nL serially diluted in DMSO) in the presence of 50 nM fluorescent JAK2-JH1 tracer and 0.5 nM Streptavidin-Tb cryptate (Cisbio Part #610SATLB) in assay buffer (50 mM Tris, pH=7.5, 10 mM MgCl2, 0.01% Brij-35, 0.1% BSA, 1 mM EGTA, 5% Glycerol and 5 mM DTT). Non-specific binding was accessed in the presence of 2 mM ATP. After incubation for 2 hours at 25° C., LanthaScreen signals were read on a PHERAstar FS plate reader (BMG LABTECH). Data was analyzed with IDBS XLfit and GraphPad Prism 5.0 software using a four parameter dose response curve to determine IC50 for each compound.

[3] = In vivo pharmacokinetics, rat; set-up: species or system Sprague Dawley rats; conditions: male, Sprague Dawley, plasma, oral 3.0 mg/kg
Procedure: Example H. In Vivo Pharmacokinetics
Test compounds were administered to male Sprague Dawley rats or male and female Cynomolgus monkeys intravenously or via oral gavage. For intravenous (IV) dosing, test compounds were dosed at 1 mg/kg using a formulation of 10% dimethylacetamide (DMAC), 10% propylene glycol (PG) in acidified saline via IV bolus for rat or 10 min IV infusion for monkey. For oral (PO) dosing, test compounds were dosed at 3.0 mg/kg using 5% DMAC in 0.5% methylcellulose in citrate buffer (pH˜2.5). Blood samples were collected at predose and various time points up to 24 hours postdose. All blood samples were collected using EDTA as the anticoagulant and centrifuged to obtain plasma samples. The plasma concentrations of test compounds were determined by LC-MS/MS methods. The measured plasma concentrations were used to calculate PK parameters by standard noncompartmental methods using Phoenix® WinNonlin software program (version 8.0, Pharsight Corporation) or similar software. In rats and monkeys, cassette dosing of test compounds were conducted to obtain preliminary PK parameters. In vivo pharmacokinetic experiments with male beagle dogs may be performed under the conditions described above.

T2 sequence (O60674 826-1132): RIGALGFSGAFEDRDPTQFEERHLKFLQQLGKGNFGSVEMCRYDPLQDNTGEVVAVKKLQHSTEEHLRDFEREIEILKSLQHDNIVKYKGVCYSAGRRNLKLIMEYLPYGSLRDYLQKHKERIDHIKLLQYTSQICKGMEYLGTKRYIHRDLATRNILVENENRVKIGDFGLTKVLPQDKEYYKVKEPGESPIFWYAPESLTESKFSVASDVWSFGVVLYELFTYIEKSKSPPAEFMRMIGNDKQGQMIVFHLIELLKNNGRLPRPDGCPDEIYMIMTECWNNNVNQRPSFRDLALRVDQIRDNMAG

## COc1nn(C)cc1-c1[nH]c2ncc3c(c2c1-c1ccc2c(cnn2C)c1)n([C@H]1CC[C@@H](CC#N)CC1)c(=O)n3C [E, reference compound]
[1]
  IC50: 250 to 1250 nM

## [2H]C([2H])([2H])n1cc(-c2[nH]c3ncc4c(c3c2-c2ccc3c(c2)COC3(C)C)n([C@@H]2CC[C@@H](NC(=O)OC)C2)c(=O)n4C)c(F)n1 [Example 11, Methyl ((1R,3R)-3-(8-(1,1-dimethyl-1,3-dihydroisobenzofuran-5-yl)-7-(3-fluoro-1-(methyl-d3)-1H-pyrazol-4-yl)-3-methyl-2-oxo-3,6-dihydroimidazo[4,5-d]pyrrolo[2,3-b]pyridin-1(2H)-yl)cyclopentyl)carbamate]
[2]; Table A
  IC50: > 1000 nM
[2]; Table C
  IC50: > 1000 nM
[1]
  IC50: > 2500 nM

## [2H]C([2H])([2H])n1c(=O)n([C@@H]2CC[C@@H](NC(=O)OC)C2)c2c3c(-c4ccc5c(c4)COC5(C)C)c(-c4cn(CC(F)F)nc4F)[nH]c3ncc21 [Example 12, Methyl ((1R,3R)-3-(7-(1-(2,2-difluoroethyl)-3-fluoro-1H-pyrazol-4-yl)-8-(1,1-dimethyl-1,3-dihydroisobenzofuran-5-yl)-3-(methyl-d3)-2-oxo-3,6-dihydroimidazo[4,5-d]pyrrolo[2,3-b]pyridin-1(2H)-yl)cyclopentyl)carbamate]
[2]; Table A
  IC50: > 1000 nM
[2]; Table C
  IC50: > 1000 nM
[1]
  IC50: > 2500 nM

## [2H]C([2H])([2H])n1cc(-c2[nH]c3ncc4c(c3c2-c2ccc3c(cnn3C(C)C)c2)n([C@@H]2CC[C@@H](NC(=O)OC)C2)c(=O)n4C([2H])([2H])[2H])c(F)n1 [Example 13, Methyl ((1R,3R)-3-(7-(3-fluoro-1-(methyl-d3)-1H-pyrazol-4-yl)-8-(1-isopropyl-1H-indazol-5-yl)-3-(methyl-d3)-2-oxo-3,6-dihydroimidazo[4,5-d]pyrrolo[2,3-b]pyridin-1(2H)-yl)cyclopentyl)carbamate]
[2]; Table A
  IC50: > 1000 nM
[2]; Table C
  IC50: > 1000 nM
[1]
  IC50: > 2500 nM
[3]
  AUC: 0.5 to 1.5 µM·h

## [2H]C([2H])([2H])n1cc(-c2[nH]c3ncc4c(c3c2-c2ccc3c(cnn3CC(F)F)c2)n([C@@H]2CC[C@@H](NC(=O)OC)C2)c(=O)n4C([2H])([2H])[2H])c(F)n1 [Example 14, Methyl ((1R,3R)-3-(8-(1-(2,2-difluoroethyl)-1H-indazol-5-yl)-7-(3-fluoro-1-(methyl-d3)-1H-pyrazol-4-yl)-3-(methyl-d3)-2-oxo-3,6-dihydroimidazo[4,5-d]pyrrolo[2,3-b]pyridin-1(2H)-yl)cyclopentyl)carbamate]
[2]; Table A
  IC50: > 1000 nM
[2]; Table C
  IC50: > 1000 nM
[1]
  IC50: 1250 to 2500 nM
[3]
  AUC: 0.5 to 1.5 µM·h

## [2H]C([2H])([2H])n1ncc2cc(-c3c(-c4cn(C([2H])([2H])C([2H])([2H])[2H])nc4F)[nH]c4ncc5c(c34)n([C@@H]3CC[C@@H](NC(=O)OC)C3)c(=O)n5C([2H])([2H])[2H])ccc21 [Example 15, Methyl ((1R,3R)-3-(7-(1-(ethyl-d5)-3-fluoro-1H-pyrazol-4-yl)-3-(methyl-d3)-8-(1-(methyl-d3)-1H-indazol-5-yl)-2-oxo-3,6-dihydroimidazo[4,5-d]pyrrolo[2,3-b]pyridin-1(2H)-yl)cyclopentyl)carbamate]
[2]; Table A
  IC50: > 1000 nM
[2]; Table C
  IC50: > 1000 nM
[1]
  IC50: 250 to 1250 nM
[3]
  AUC: 0.5 to 1.5 µM·h

## [2H]C([2H])([2H])n1cc(-c2[nH]c3ncc4c(c3c2-c2ccc3c(cnn3C(C)C)c2)n([C@@H]2CC[C@@H](NC(=O)OC)C2)c(=O)n4C)c(F)n1 [Example 16, Methyl ((1R,3R)-3-(7-(3-fluoro-1-(methyl-d3)-1H-pyrazol-4-yl)-8-(1-isopropyl-1H-indazol-5-yl)-3-methyl-2-oxo-3,6-dihydroimidazo[4,5-d]pyrrolo[2,3-b]pyridin-1(2H)-yl)cyclopentyl)carbamate]
[2]; Table A
  IC50: > 1000 nM
[2]; Table C
  IC50: > 1000 nM
[1]
  IC50: 1250 to 2500 nM

## [2H]C([2H])([2H])n1cc(-c2[nH]c3ncc4c(c3c2-c2cc(F)c3c(cnn3C([2H])([2H])[2H])c2)n([C@@H]2CC[C@@H](NC(=O)OC)C2)c(=O)n4C([2H])([2H])[2H])c(F)n1 [Example 17, Methyl ((1R,3R)-3-(8-(7-fluoro-1-(methyl-d3)-1H-indazol-5-yl)-7-(3-fluoro-1-(methyl-d3)-1H-pyrazol-4-yl)-3-(methyl-d3)-2-oxo-3,6-dihydroimidazo[4,5-d]pyrrolo[2,3-b]pyridin-1(2H)-yl)cyclopentyl)carbamate]
[2]; Table A
  IC50: > 1000 nM
[2]; Table C
  IC50: > 1000 nM
[1]
  IC50: 1250 to 2500 nM

## [2H]C([2H])([2H])n1cc(-c2[nH]c3ncc4c(c3c2-c2ccc3c(cnn3CC(F)F)c2)n([C@@H]2CC[C@@H](NC(=O)OC)C2)c(=O)n4C)c(F)n1 [Example 18, Methyl ((1R,3R)-3-(8-(1-(2,2-difluoroethyl)-1H-indazol-5-yl)-7-(3-fluoro-1-(methyl-d3)-1H-pyrazol-4-yl)-3-methyl-2-oxo-3,6-dihydroimidazo[4,5-d]pyrrolo[2,3-b]pyridin-1(2H)-yl)cyclopentyl)carbamate]
[2]; Table A
  IC50: > 1000 nM
[2]; Table C
  IC50: > 1000 nM
[1]
  IC50: 1250 to 2500 nM

## [2H]C([2H])([2H])n1c(=O)n([C@@H]2CC[C@@H](NC(=O)OC)C2)c2c3c(-c4ccc5c(c4)COC5(C)C)c(-c4cn(C([2H])([2H])C([2H])([2H])[2H])nc4F)[nH]c3ncc21 [Example 19, Methyl ((1R,3R)-3-(8-(1,1-dimethyl-1,3-dihydroisobenzofuran-5-yl)-7-(1-(ethyl-d5)-3-fluoro-1H-pyrazol-4-yl)-3-(methyl-d3)-2-oxo-3,6-dihydroimidazo[4,5-d]pyrrolo[2,3-b]pyridin-1(2H)-yl)cyclopentyl)carbamate]
[2]; Table A
  IC50: > 1000 nM
[2]; Table C
  IC50: > 1000 nM
[1]
  IC50: > 2500 nM

## [2H]C([2H])([2H])n1c(=O)n([C@@H]2CC[C@@H](NC(=O)OC)C2)c2c3c(-c4ccc5c(c4)COC5(C)C)c(-c4cn(CC)nc4F)[nH]c3ncc21 [Example 20, Methyl ((1R,3R)-3-(8-(1,1-dimethyl-1,3-dihydroisobenzofuran-5-yl)-7-(1-ethyl-3-fluoro-1H-pyrazol-4-yl)-3-(methyl-d3)-2-oxo-3,6-dihydroimidazo[4,5-d]pyrrolo[2,3-b]pyridin-1(2H)-yl)cyclopentyl)carbamate]
[2]; Table A
  IC50: > 1000 nM
[2]; Table C
  IC50: > 1000 nM
[1]
  IC50: > 2500 nM

## [2H]C([2H])([2H])n1ncc2cc(-c3c(-c4cn(C([2H])(C([2H])([2H])[2H])C([2H])([2H])[2H])nc4F)[nH]c4ncc5c(c34)n([C@@H]3CC[C@@H](NC(=O)OC)C3)c(=O)n5C([2H])([2H])[2H])ccc21 [Example 21, Methyl ((1R,3R)-3-(7-(3-fluoro-1-(propan-2-yl-d7)-1H-pyrazol-4-yl)-3-(methyl-d3)-8-(1-(methyl-d3)-1H-indazol-5-yl)-2-oxo-3,6-dihydroimidazo[4,5-d]pyrrolo[2,3-b]pyridin-1(2H)-yl)cyclopentyl)carbamate]
[2]; Table A
  IC50: > 1000 nM
[2]; Table C
  IC50: > 1000 nM
[1]
  IC50: 1250 to 2500 nM
